Results on 29 compounds are retold here after PubChem BioAssay (NCI).

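Results reflect a 48-hour exposure of cells in 96-well plates to compound at five concentrations. Here, GI50 denotes the concentration required for 50% inhibition of growth. TGI: total growth inhibition.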

The first assay has as its system SK-OV-3 ovarian. In words: NCI-60 cell line screen, 48 h.
The compound `CCOC(=O)NC(=O)c1cn(CCCO)c(=O)[nH]c1=O` returned a TGI greater than 100 µM.

Consider `CCN1c2ccccc2C(C(SC)S(=O)(=O)c2ccc(C)cc2)c2c1[nH]c(=O)n(C)c2=O` (centres undefined), for which the TGI was greater than 100 µM.

`CC(=O)OC1COC(n2ccc3cc(Br)c([N+](=O)[O-])cc32)C(OC(C)=O)C1OC(C)=O` (centres undefined): the TGI was greater than 100 µM.

Consider `Cn1cnc([N+](=O)[O-])c1Sc1nc2ccccc2[nH]1`, for which the TGI came out at 61.8 µM.

In turn, `CCCCCCCCC/C=C1\CCC(CN2CCOCC2)C1=O` (centres undefined) had a TGI of 31.2 µM.

Compound `CCCCCCN(CCCCCC)C(=O)Cc1c2n(c3ccccc13)Cc1ccccc1-2` returned a TGI greater than 100 µM.

As for `C=C1C(=O)O[C@H]2[C@H]1CC/C(COC(=O)c1c[nH]c3ccccc13)=C\CC[C@@]1(C)O[C@@H]21`, the GI50 is 2.24 µM and the TGI amounted to 5.59 µM.

The compound `C/C(=N\NC(=S)NC(CCC(=O)O)C(=O)O)c1ccccn1` (centres undefined) displayed a TGI greater than 100 µM.

`Brc1ccccc1C1SCc2nc3ccccc3n21` (centres undefined) had a TGI of 56.7 µM.

In turn, `O=C(/C=C\c1ccc(Cl)c(Cl)c1)c1ccc(Cl)cc1Cl` came in with a TGI of 51 µM.

In the case of `ClCc1cccc(Cn2cnc3ncnc(Cl)c32)c1`, the GI50 is 10.8 µM and the TGI stood at 25.5 µM.

In the case of `CCOC(=O)C(=C=C=C(c1ccccc1)c1ccccc1)C(=O)OCC`, the TGI is 50.3 µM.

In the case of `Cn1c2ccccc2c2cc(-c3ccccc3)c3c(c21)C(=O)c1ccccc1C3=O`, the TGI is greater than 100 µM.

On to `c1ccc(COc2cccc3ccc[n+](Cc4ccccc4)c23)cc1`, for which the TGI was found to be 73.7 µM.

`CN(C)c1ccc(/C=C(\NC(=O)c2ccccc2)c2nc3ncncc3[nH]2)cc1` came in with a TGI greater than 100 µM.

Take `CC1=CC(O)(c2ccc(-c3ccccc3Cl)cc2)OC1=O` (centres undefined): the TGI is greater than 100 µM.

For the compound `CCOC(=O)CC(=O)ON(C)C(C)=O`, the TGI is greater than 100 µM.

`CCc1cc(Cc2cc(CC)c(NC(=O)C(=O)Cc3ccccn3)c(CC)c2Cl)c(Cl)c(CC)c1NC(=O)C(=O)Cc1ccccn1` had a TGI greater than 100 µM.

For `COC(OC)C(C)CC(=O)N(C)C` (centres undefined), the TGI is greater than 100 µM.

For the compound `O=S1(=O)OCCOS(=O)(=O)C1Br`, the TGI is greater than 100 µM.

`CC(=O)/C(=C\c1cccc([N+](=O)[O-])c1)C(=O)Nc1ccccc1C` gave a TGI greater than 100 µM.

Regarding `Clc1ccc(C(c2ccc(Cl)cc2)c2ccccn2)cc1`, the TGI was determined as 86.5 µM.

Compound `C[Si](C)(C)C1(Sc2ccccc2)SCCCS1` returned a TGI greater than 100 µM.

Turning to `O=c1cc(-c2ccccc2)oc2cc(OCCCOc3ccc4c(=O)cc(-c5ccccc5)oc4c3)ccc12`, the TGI was greater than 100 µM.

For the next assay, the system named is HCC-2998 colon. In words: NCI-60 cell line screen, 48 h.
`CCOC(=O)NC(=O)c1cn(CCCO)c(=O)[nH]c1=O` returned a TGI greater than 100 µM.

As to `CCN1c2ccccc2C(C(SC)S(=O)(=O)c2ccc(C)cc2)c2c1[nH]c(=O)n(C)c2=O` (centres undefined), the TGI is greater than 100 µM.

On to `COc1ccc(S(=O)(=O)NNS(C)(=O)=O)cc1`, for which the TGI was greater than 100 µM.

On to `CC(=O)OC1COC(n2ccc3cc(Br)c([N+](=O)[O-])cc32)C(OC(C)=O)C1OC(C)=O` (centres undefined), for which the TGI was 59.6 µM.

As to `Cn1cnc([N+](=O)[O-])c1Sc1nc2ccccc2[nH]1`, the TGI was 26.9 µM.

Consider `CCCCCCCCC/C=C1\CCC(CN2CCOCC2)C1=O` (centres undefined), for which the TGI came to 18.8 µM.

`CCCCCCN(CCCCCC)C(=O)Cc1c2n(c3ccccc13)Cc1ccccc1-2` showed a TGI greater than 100 µM.

Take `C=C1C(=O)O[C@H]2[C@H]1CC/C(COC(=O)c1c[nH]c3ccccc13)=C\CC[C@@]1(C)O[C@@H]21`: the GI50 is 0.32 µM and the TGI was determined as 1.08 µM.

`C/C(=N\NC(=S)NC(CCC(=O)O)C(=O)O)c1ccccn1` (centres undefined) showed a TGI greater than 100 µM.

In turn, `O=C(/C=C\c1ccc(Cl)c(Cl)c1)c1ccc(Cl)cc1Cl` returned a TGI of 58.6 µM.

For `ClCc1cccc(Cn2cnc3ncnc(Cl)c32)c1`, the GI50 is 1.68 µM and the TGI came out at 3.25 µM.

For `CCOC(=O)C(=C=C=C(c1ccccc1)c1ccccc1)C(=O)OCC`, the TGI amounted to 61.4 µM.

`Cn1c2ccccc2c2cc(-c3ccccc3)c3c(c21)C(=O)c1ccccc1C3=O` registered a TGI greater than 100 µM.

`c1ccc(COc2cccc3ccc[n+](Cc4ccccc4)c23)cc1` yielded a TGI of 41.4 µM.

Consider `CN(C)c1ccc(/C=C(\NC(=O)c2ccccc2)c2nc3ncncc3[nH]2)cc1`, for which the TGI was greater than 100 µM.

The compound `CC1=CC(O)(c2ccc(-c3ccccc3Cl)cc2)OC1=O` (centres undefined) returned a TGI greater than 100 µM.

For the compound `CCOC(=O)CC(=O)ON(C)C(C)=O`, the TGI was greater than 100 µM.

`CCc1cc(Cc2cc(CC)c(NC(=O)C(=O)Cc3ccccn3)c(CC)c2Cl)c(Cl)c(CC)c1NC(=O)C(=O)Cc1ccccn1` gave a TGI greater than 100 µM.

`CC(C)OP(=O)(OC(C)C)C(=NCCN=C(NNc1ccc([N+](=O)[O-])cc1)P(=O)(OC(C)C)OC(C)C)NNc1ccc([N+](=O)[O-])cc1` showed a TGI greater than 100 µM.

`COC(OC)C(C)CC(=O)N(C)C` (centres undefined) displayed a TGI greater than 100 µM.

`O=S1(=O)OCCOS(=O)(=O)C1Br`: the TGI was greater than 100 µM.

Regarding `CC(C)=Cc1cc(C(=O)Nc2ccc(Cl)c(Cl)c2)nc(N)n1`, the TGI is greater than 100 µM.

For `C#CC1(O)CCC2C3CCc4cc(Oc5nc(F)nc(-c6c7ccccc7c7sc8ccccc8n67)n5)ccc4C3CC[C@@]21C` (some centres undefined), the TGI was greater than 100 µM.

`CC(=O)/C(=C\c1cccc([N+](=O)[O-])c1)C(=O)Nc1ccccc1C` gave a TGI greater than 100 µM.

For `Clc1ccc(C(c2ccc(Cl)cc2)c2ccccn2)cc1`, the TGI came to 30.9 µM.

In turn, `C[Si](C)(C)C1(Sc2ccccc2)SCCCS1` had a TGI greater than 100 µM.

As for `O=c1cc(-c2ccccc2)oc2cc(OCCCOc3ccc4c(=O)cc(-c5ccccc5)oc4c3)ccc12`, the TGI is greater than 100 µM.

The next assay deals with SN12C renal. In words: NCI-60 cell line screen, 48 h.
Compound `CCOC(=O)NC(=O)c1cn(CCCO)c(=O)[nH]c1=O` registered a TGI greater than 100 µM.

`CCN1c2ccccc2C(C(SC)S(=O)(=O)c2ccc(C)cc2)c2c1[nH]c(=O)n(C)c2=O` (centres undefined) returned a TGI greater than 100 µM.

In turn, `COc1ccc(S(=O)(=O)NNS(C)(=O)=O)cc1` registered a TGI greater than 100 µM.

For `COc1cc(/C=C2\CN(S(=O)(=O)c3ccccc3)C/C(=C\c3cc(CN4CCCC4)c(O)c(OC)c3)C2=O)cc(CN2CCCC2)c1O`, the GI50 is 1.08 µM and the TGI is 3.22 µM.

Regarding `CC(=O)OC1COC(n2ccc3cc(Br)c([N+](=O)[O-])cc32)C(OC(C)=O)C1OC(C)=O` (centres undefined), the TGI was greater than 100 µM.

`Cn1cnc([N+](=O)[O-])c1Sc1nc2ccccc2[nH]1`: the TGI was 30.2 µM.

The compound `CCCCCCCCC/C=C1\CCC(CN2CCOCC2)C1=O` (centres undefined) showed a TGI of 13 µM.

On to `CCCCCCN(CCCCCC)C(=O)Cc1c2n(c3ccccc13)Cc1ccccc1-2`, for which the TGI is greater than 100 µM.
